Each molecule was assayed on test plant species (assay: Post-emergent herbicidal activity test (greenhouse, foliar spray, visual growth reduction)). Details: post-emergence, 336 h, ALOMY: blackgrass (Alopecurus myosuroides), 140 g ai/ha, 14 days after application, read-out: Visual Growth Reduction (%) 14 Days After Application, ALOMY.
Assay type: in vivo
Procedure: Post-emergent Test: Seeds or nutlets of the desired test plant species were planted in Sun Gro Metro-Mix® 360 planting mixture, which typically has a pH of 6.0 to 6.8 and an organic matter content of about 30 percent, in plastic pots with a surface area of 64 square centimeters. In some aspects, to ensure good germination and healthy plants, a fungicide treatment and/or other chemical or physical treatment was applied. The plants were grown for 7-21 d in a greenhouse with an approximate 15 h photoperiod which was maintained at 23-29° C. during the day and 22-28° C. during the night. Nutrients and water were added on a regular basis and supplemental lighting was provided with overhead metal halide 1000-Watt lamps as necessary. Plants were used for testing when they reached the first or second true leaf stage. A weighed amount, determined by the highest rate to be tested, of each test compound was placed in a 25 mL glass vial and was dissolved in 4 mL of a 97:3 v/v mixture of acetone and DMSO to obtain concentrated stock solutions. […] The concentrated stock solutions obtained were diluted with 20 mL of an aqueous mixture containing acetone, water, isopropyl alcohol, DMSO, […] crop oil concentrate, and X-77 surfactant in a 48.5:39:10:1.5:1.0:0.02 v/v ratio to obtain spray solutions containing the application rate. Compound requirements are based upon a 12 mL application volume at a rate of 187 liters per hectare (L/ha). Formulated compounds were applied to the plant material with an overhead Mandel track sprayer equipped with […] nozzles calibrated to deliver 187 L/ha over an application area of 0.64 square meters at a spray height of 18 inches (43 cm) above the average plant canopy height. Control plants were sprayed in the same manner with the solvent blank. The treated plants and control plants were placed in a greenhouse as described above and watered by subirrigation to prevent wash-off of the test compounds. After 14 d, the condition of the test plants as compared with that of the nontreated and control plants was determined visually and scored on a scale of 0 to 100 percent where 0 corresponds to no injury and 100 corresponds to complete control. In the reporting of the results, Table A: Percent Growth Reduction Conversion Table was used.
In the case of `COC(=O)c1nc(-c2cc3c(cc2Cl)OCO3)c(Cl)cc1Cl` [F155, Methyl 3,5-dichloro-6-(6-chlorobenzo[d] [1,3]dioxol-5-yl)picolinate], the pest or weed control at 140 g/ha is reported as 0 to 29%.

Same assay, conditions: post-emergence, 336 h, AMARE: redroot pigweed (Amaranthus retroflexus), 140 g ai/ha, 14 days after application, read-out: Visual Growth Reduction (%) 14 Days After Application, AMARE
Molecule `COC(=O)c1nc(-c2cc3c(cc2Cl)OCO3)c(Cl)cc1Cl` [F155, Methyl 3,5-dichloro-6-(6-chlorobenzo[d] [1,3]dioxol-5-yl)picolinate] has a pest or weed control at 140 g/ha of 60 to 74%.

Same assay, conditions: post-emergence, 336 h, AVEFA: wild oat (Avena fatua), 140 g ai/ha, 14 days after application, read-out: Visual Growth Reduction (%) 14 Days After Application, AVEFA
With `COC(=O)c1nc(-c2cc3c(cc2Cl)OCO3)c(Cl)cc1Cl` [F155, Methyl 3,5-dichloro-6-(6-chlorobenzo[d] [1,3]dioxol-5-yl)picolinate] the pest or weed control at 140 g/ha was 0 to 29%.

Same assay, conditions: post-emergence, 336 h, CHEAL: lambsquarters (Chenopodium album), 140 g ai/ha, 14 days after application, read-out: Visual Growth Reduction (%) 14 Days After Application, CHEAL
For `COC(=O)c1nc(-c2cc3c(cc2Cl)OCO3)c(Cl)cc1Cl` [F155, Methyl 3,5-dichloro-6-(6-chlorobenzo[d] [1,3]dioxol-5-yl)picolinate], the pest or weed control at 140 g/ha was 75 to 84%.

Same assay, conditions: post-emergence, 336 h, CIRAR: canada thistle (Cirsium arvense), 140 g ai/ha, 14 days after application, read-out: Visual Growth Reduction (%) 14 Days After Application, CIRAR
In the case of `COC(=O)c1nc(-c2cc3c(cc2Cl)OCO3)c(Cl)cc1Cl` [F155, Methyl 3,5-dichloro-6-(6-chlorobenzo[d] [1,3]dioxol-5-yl)picolinate], the pest or weed control at 140 g/ha is reported as 0 to 29%.

Same assay, conditions: post-emergence, 336 h, CYPES: yellow nutsedge (Cyperus esculentus), 140 g ai/ha, 14 days after application, read-out: Visual Growth Reduction (%) 14 Days After Application, CYPES
Work on `COC(=O)c1nc(-c2cc3c(cc2Cl)OCO3)c(Cl)cc1Cl` [F155, Methyl 3,5-dichloro-6-(6-chlorobenzo[d] [1,3]dioxol-5-yl)picolinate] yielded a pest or weed control at 140 g/ha of 0 to 29%.

Same assay, conditions: post-emergence, 336 h, DIGSA: crabgrass (Digitaria sanguinalis), 140 g ai/ha, 14 days after application, read-out: Visual Growth Reduction (%) 14 Days After Application, DIGSA
`COC(=O)c1nc(-c2cc3c(cc2Cl)OCO3)c(Cl)cc1Cl` [F155, Methyl 3,5-dichloro-6-(6-chlorobenzo[d] [1,3]dioxol-5-yl)picolinate] gave a pest or weed control at 140 g/ha of 0 to 29%.

Same assay, conditions: post-emergence, 336 h, ECHCG: barnyardgrass (Echinochloa crus-galli), 140 g ai/ha, 14 days after application, read-out: Visual Growth Reduction (%) 14 Days After Application, ECHCG
With `COC(=O)c1nc(-c2cc3c(cc2Cl)OCO3)c(Cl)cc1Cl` [F155, Methyl 3,5-dichloro-6-(6-chlorobenzo[d] [1,3]dioxol-5-yl)picolinate] the pest or weed control at 140 g/ha was 0 to 29%.

Same assay, conditions: post-emergence, 336 h, IPOHE: ivy-leaf morning glory (Ipomoea hederacea), 140 g ai/ha, 14 days after application, read-out: Visual Growth Reduction (%) 14 Days After Application, IPOHE
In the case of `COC(=O)c1nc(-c2cc3c(cc2Cl)OCO3)c(Cl)cc1Cl` [F155, Methyl 3,5-dichloro-6-(6-chlorobenzo[d] [1,3]dioxol-5-yl)picolinate], the pest or weed control at 140 g/ha is reported as 0 to 29%.

Same assay, conditions: post-emergence, 336 h, KCHSC: kochia (Bassia scoparia), 140 g ai/ha, 14 days after application, read-out: Visual Growth Reduction (%) 14 Days After Application, KCHSC
`COC(=O)c1nc(-c2cc3c(cc2Cl)OCO3)c(Cl)cc1Cl` [F155, Methyl 3,5-dichloro-6-(6-chlorobenzo[d] [1,3]dioxol-5-yl)picolinate] showed a pest or weed control at 140 g/ha of 0 to 29%.

Same assay, conditions: post-emergence, 336 h, ORYSA: rice (Oryza sativa), 140 g ai/ha, 14 days after application, read-out: Visual Growth Reduction (%) 14 Days After Application, ORYSA
Work on `COC(=O)c1nc(-c2cc3c(cc2Cl)OCO3)c(Cl)cc1Cl` [F155, Methyl 3,5-dichloro-6-(6-chlorobenzo[d] [1,3]dioxol-5-yl)picolinate] yielded a pest or weed control at 140 g/ha of 0 to 29%.

Same assay, conditions: post-emergence, 336 h, SETFA: giant foxtail (Setaria faberi), 140 g ai/ha, 14 days after application, read-out: Visual Growth Reduction (%) 14 Days After Application, SETFA
`COC(=O)c1nc(-c2cc3c(cc2Cl)OCO3)c(Cl)cc1Cl` [F155, Methyl 3,5-dichloro-6-(6-chlorobenzo[d] [1,3]dioxol-5-yl)picolinate] was tested, and the pest or weed control at 140 g/ha was 0 to 29%.

Same assay, conditions: post-emergence, 336 h, SORVU: grain sorghum (Sorghum vulgare), 140 g ai/ha, 14 days after application, read-out: Visual Growth Reduction (%) 14 Days After Application, SORVU
`COC(=O)c1nc(-c2cc3c(cc2Cl)OCO3)c(Cl)cc1Cl` [F155, Methyl 3,5-dichloro-6-(6-chlorobenzo[d] [1,3]dioxol-5-yl)picolinate] showed a pest or weed control at 140 g/ha of 0 to 29%.

Same assay, conditions: post-emergence, 336 h, STEME: common chickweed (Stellaria media), 140 g ai/ha, 14 days after application, read-out: Visual Growth Reduction (%) 14 Days After Application, STEME
In the case of `COC(=O)c1nc(-c2cc3c(cc2Cl)OCO3)c(Cl)cc1Cl` [F155, Methyl 3,5-dichloro-6-(6-chlorobenzo[d] [1,3]dioxol-5-yl)picolinate], the pest or weed control at 140 g/ha is reported as 0 to 29%.

Same assay, conditions: post-emergence, 336 h, TRZAS: wheat, spring (Triticum aestivum), 140 g ai/ha, 14 days after application, read-out: Visual Growth Reduction (%) 14 Days After Application, TRZAS
In the case of `COC(=O)c1nc(-c2cc3c(cc2Cl)OCO3)c(Cl)cc1Cl` [F155, Methyl 3,5-dichloro-6-(6-chlorobenzo[d] [1,3]dioxol-5-yl)picolinate], the pest or weed control at 140 g/ha is reported as 0 to 29%.

— patent publication US20230017045A1, “PYRIDINE AND PYRIMIDINE CARBOXYLATE HERBICIDES AND METHODS OF USE THEREOF” (Dow AgroSciences LLC, priority 2017, published 2023)
